According to ChEMBL document CHEMBL1142044, “Estrogen receptor ligands. Part 10: Chromanes: old scaffolds for new SERAMs” (Bioorg Med Chem Lett, 2005):

Legend:
Type in all cases: ADME, organism-based
[1] = Half life in female rat was determined with intravenous dosing at 1 mpk and oral dosing at 2 mpk; details: in vivo
[2] = Bioavailability in rat (female) (dose 1 mg/kg i.v. and 2 mg/kg p.o.); details: in vivo, po
[3] = Plasma clearance in female rat was determined with intravenous dosing at 1 mpk and oral dosing at 2 mpk; details: 1 mg/kg

half-life [1] [h] | bioavailability [2] [%] | clearance [3] [mL/min/kg] | Compound
8.1 | 45 | 7.7 | C[C@@H]1c2cc(O)ccc2O[C@@H](c2ccc(OCCN3CCCCC3)cc2)[C@H]1c1ccc(O)cc1
8 | 43 | 17.8 | C[C@@H]1CCN(CCOc2ccc([C@@H]3Oc4ccc(O)c(F)c4[C@@H](C)[C@@H]3c3ccc(O)cc3)cc2)C1
5.9 | 2 | 9.5 | C[C@@H]1c2ccc(O)cc2O[C@@H](c2ccc(OCCN3CCCCC3)cc2)[C@H]1c1ccc(O)cc1
4.4 | 31 | 42.6 | C[C@@H]1c2c(ccc(O)c2F)O[C@@H](c2ccc(OC[C@H](C)N3CCCC3)cc2)[C@H]1c1ccc(O)cc1
11.2 | 54 | 16.9 | C[C@@H]1c2c(ccc(O)c2F)O[C@@H](c2ccc(OCCN3CCCCC3)cc2)[C@H]1c1ccc(O)cc1
6.1 | 44 | 9 | C[C@H]1CCN([C@@H](C)COc2ccc([C@@H]3Oc4ccc(O)c(F)c4[C@@H](C)[C@@H]3c3ccc(O)cc3)cc2)C1
